# Where two headings read alike, the source gives them in different places.
# Key:
# [1] = target: T1, p53 Y220C mutant DBD (Homo sapiens, UniProt P04637, M133L/N239Y/N268D/V203A/Y220C); experiment: DSF thermal shift assay, Y220C mutant; format: binding; details: 250 μM compound
# T1 construct: the mutant p53 DBD (residues 94–312) of interest; 6xHis (N, cleaved yes); lipoyl domain of dihydrolipoamide acetyltransferase (Bacillus stearothermophilus) (N, cleaved yes); made in house; host or cells: E. coli C41
# Method: (§1) Melting temperatures of the p53 mutants were determined by differential scanning fluorimetry (DSF) using the dye SYPRO Orange (Invitrogen), which quantitatively binds to hydrophobic protein patches that become exposed upon thermal unfolding. Real-time melt analyses were performed using either an Agilent MX3005P (heating rate of 270 K/h excitation/emission filters = 492/610 nm; Tables 2 and 4) or a Corbett Rotor-Gene 6000 real-time qPCR thermocycler (heating rate of 180 K/h, excitation/emission filters = 460/510 nm; Table 3). Tm measurements were performed with 8 μM p53 protein and 5–10 × SYPRO Orange (Life Technologies) in a 25 mM KPi (pH 7.2), 150 mM NaCl, and 1 mM TCEP assay buffer. For measurements of compound-induced Tm shifts (ΔTm), the assay buffer additionally contained 5% DMSO (v/v), with either 250 μM ligand or no ligand (control). ΔTm values were calculated as ΔTm = Tm (protein + compound) – Tm (protein). Native melting curves were measured in quadruplicate and compound-induced thermal shifts in triplicate or higher. Mean values ± SEM are given.
# [2] = target: T2, p53 Y220S mutant DBD (Homo sapiens, UniProt P04637, M133L/N239Y/N268D/V203A/Y220S); experiment: DSF thermal shift assay, Y220S mutant; format: binding; details: 250 μM compound
# T2 construct: the mutant p53 DBD (residues 94–312) of interest; 6xHis (N, cleaved yes); lipoyl domain of dihydrolipoamide acetyltransferase (Bacillus stearothermophilus) (N, cleaved yes); made in house; host or cells: E. coli C41
# Method: as §1
# [3] = target: T3, p53 Y220N mutant DBD (Homo sapiens, UniProt P04637, M133L/N239Y/N268D/V203A/Y220N); experiment: DSF thermal shift assay, Y220N mutant; format: binding; details: 250 μM compound, Agilent MX3005P, 270 K/h, triplicate, mean ± SEM (Table 4)
# T3 construct: the mutant p53 DBD (residues 94–312) of interest; 6xHis (N, cleaved yes); lipoyl domain of dihydrolipoamide acetyltransferase (Bacillus stearothermophilus) (N, cleaved yes); made in house; host or cells: E. coli C41
# Method: as §1
# [4] = target: T1, p53 Y220C mutant DBD; details: ITC, cited from earlier work
# [5] = target: T4, p53 Y220H mutant DBD (Homo sapiens, UniProt P04637, M133L/N239Y/N268D/V203A/Y220H); experiment: DSF thermal shift assay, Y220H mutant; format: binding; details: 250 μM compound, Agilent MX3005P, 270 K/h, triplicate, mean ± SEM (Table 4)
# T4 construct: the mutant p53 DBD (residues 94–312) of interest; 6xHis (N, cleaved yes); lipoyl domain of dihydrolipoamide acetyltransferase (Bacillus stearothermophilus) (N, cleaved yes); made in house; host or cells: E. coli C41
# Method: as §1
# [6] = target: T3, p53 Y220N mutant DBD; experiment: Isothermal titration calorimetry, Y220N mutant; format: binding; details: ITC, Nano ITC, 20 °C
# Method: (§2) Isothermal titration calorimetry (ITC) experiments for the Y220C and Y220S mutants were performed using a MicroCal (Amherst) iTC200 calorimeter as described.[14] Briefly, the cell unit contained 30–50 μM protein in a 25 mM KPi (pH 7.2), 150 mM NaCl, 1 mM TCEP, and 5% (v/v) DMSO assay buffer. The syringe contained 0.5–2 mM compound in the same buffer, using injection steps of 2 μL at a rate of 0.5 μL/s (initial injection: 0.5 μL) and 120 s spacing. […] Data analysis was performed using the MicroCal Origin software. ITC measurements for the Y220N mutant were carried out with the same buffers as above but using a Nano ITC microcalorimeter (TA Instruments) and injection steps of 8 μL, at a rate of 0.5 μL/s, and 200 s spacing. Data were processed using the NanoAnalyze software (Version 3.5.0) supplied with the instrument. All measurements were performed at 20 °C.
# [7] = target: T5, p53 DBD WT (stabilized M133L/V203A/N239Y/N268D) (Homo sapiens, UniProt P04637, M133L/N239Y/N268D/V203A); experiment: DSF thermal shift assay, WT (stabilized quadruple mutant DBD); format: binding; details: 250 μM compound, Agilent MX3005P, 270 K/h, triplicate, mean ± SEM (Table 4)
# T5 construct: the mutant p53 DBD (residues 94–312) of interest; 6xHis (N, cleaved yes); lipoyl domain of dihydrolipoamide acetyltransferase (Bacillus stearothermophilus) (N, cleaved yes); made in house; host or cells: E. coli C41
# Method: as §1
# [8] = target: T2, p53 Y220S mutant DBD; experiment: Isothermal titration calorimetry, Y220S mutant; format: binding; details: for Kd: ITC, 20 °C, 25 mM KPi pH 7.2, 5% DMSO
# Method: as §2
# [9] = 8 μM protein, 5% DMSO, Rotor-Gene 6000, 180 K/h, quadruplicate, mean ± SEM (Table 3), read-out: Y220C mutant ΔTm
# [10] = 8 μM protein, 5% DMSO, Rotor-Gene 6000, 180 K/h, quadruplicate, mean ± SEM (Table 3), read-out: Y220S mutant ΔTm
# [11] = Agilent MX3005P, 270 K/h, triplicate, mean ± SEM (Table 4), read-out: ΔTm Y220C
# [12] = Agilent MX3005P, 270 K/h, triplicate, mean ± SEM (Table 4), read-out: ΔTm Y220S
Structure (SMILES),"ΔTm at 250 µM [1, 9]","ΔTm at 250 µM [2, 10]",Kd ([4]; ref 17 (Bauer et al.)),also measured
CCn1c2ccccc2c2cc(CNC)ccc21 [PK083],1 ± 0.1 °C,0.7 ± 0.1 °C,–,–
CNCc1ccc2c(c1)c1ccccc1n2CC(F)(F)F [PK9255],1.7 ± 0.1 °C,3.2 °C,–,"ΔTm at 250 µM [3]: 1.4 ± 0.1 °C; Kd ([4]; ref 14 (Bauer et al.)): 28 µM; ΔTm at 250 µM [1, 11]: 1.7 ± 0.1 °C; ΔTm Y220H [5]: no significant stabilizing effect; ΔTm at 250 µM [5]: 0.2 ± 0.1 °C; Kd [6]: 40 µM; ΔTm at 250 µM [2, 12]: 3.2 °C; ΔTm at 250 µM [7]: 0 °C; Kd [8]: 16 ± 2 µM; Tighter binding to Y220S than to Y220C (ratio of Kd) ([8]; Kd 16 μM (Y220S) vs 28 μM (Y220C)): about 2 times"
CCn1c2ccc(CNC)cc2c2ccc(Br)cc21 [PK9284],2.4 ± 0.1 °C,1.8 ± 0.1 °C,14 ± 2 µM,–
CCn1c2ccc(CN(C)C)cc2c2ccc(Br)cc21 [PK9285],–,–,–,"ΔTm at 250 µM [3]: 1.4 ± 0.1 °C; ΔTm at 250 µM [1, 11]: 2 °C; ΔTm at 250 µM [5]: 0.2 °C; ΔTm at 250 µM [2, 12]: 2.1 ± 0.1 °C; ΔTm at 250 µM [7]: -0.2 ± 0.1 °C"
CCOc1ccc2c3cc(CNC)ccc3n(CC)c2c1 [PK9295],1.2 ± 0.1 °C,0.9 °C,62 ± 7 µM,–
"CNCc1ccc2c(c1)c1ccc(Br)cc1n2CC(F)(F)F [PK9301, 1-(7-Bromo-9-(2,2,2-trifluoroethyl)-9H-carbazol-3-yl)-N-methylmethanamine]",3.5 ± 0.1 °C,> 5 °C,–,Kd [8]: 4 ± 1 µM
CCn1c2ccc(CNC)cc2c2ccc(-c3cccs3)cc21 [PK9318],4.4 ± 0.1 °C,2.1 °C,2.6 ± 0.4 µM,–
CCn1c2ccc(CNC)cc2c2ccc(-c3ccco3)cc21 [PK9320],3.4 °C,1.8 ± 0.1 °C,4.1 ± 0.2 µM,–
CCn1c2ccc(CNC)cc2c2ccc(-c3ccoc3)cc21 [PK9321],–,–,–,"ΔTm at 250 µM [3]: 1.4 ± 0.1 °C; ΔTm at 250 µM [1, 11]: 3.1 ± 0.1 °C; ΔTm at 250 µM [5]: 0.7 ± 0.1 °C; ΔTm at 250 µM [2, 12]: 2.1 ± 0.1 °C; ΔTm at 250 µM [7]: 0.2 ± 0.1 °C"
CCn1c2ccc(CNC)cc2c2ccc(-c3nccs3)cc21 [PK9322],3.4 °C,3 °C,8.3 ± 2.6 µM,–
CCn1c2ccc(CNC)cc2c2ccc(-c3cscn3)cc21 [PK9323],3.1 ± 0.1 °C,3.7 ± 0.3 °C,5.3 ± 1.4 µM,"ΔTm at 250 µM [3]: 0.7 ± 0.1 °C; ΔTm at 250 µM [1, 11]: 3.1 ± 0.1 °C; ΔTm at 250 µM [5]: -0.3 ± 0.1 °C; ΔTm at 250 µM [2, 12]: 3.7 ± 0.3 °C; ΔTm at 250 µM [7]: -0.4 ± 0.2 °C; Kd [8]: 5.9 ± 1.3 µM"
CCn1c2ccc(CNC)cc2c2ccc(-c3ccc(C)s3)cc21 [PK9327],3.7 ± 0.2 °C,1.2 °C,–,–
CCn1c2ccc(CNC)cc2c2ccc(-c3cc(C)cs3)cc21 [PK9328],3.7 °C,1.5 ± 0.1 °C,–,–
CCn1c2ccc(CNC)cc2c2ccc(-c3sccc3C)cc21 [PK9331],2.1 ± 0.1 °C,1.1 ± 0.1 °C,–,–
CCn1c2ccc(CNC)cc2c2ccc(-c3cnoc3)cc21 [PK9424],2.3 ± 0.1 °C,1.2 ± 0.1 °C,–,–
